According to patent US20160193206A1, “BET-PROTEIN-INHIBITING DIHYDROPYRIDOPYRAZINONES” (BAYER PHARMA AKTIENGESELLSCHAFT, priority 2012, published 2016):

Assays:
[1] = target: T1, BRD4 bromo domain 2 [BRD4(2)] (Homo sapiens, UniProt O60885); assay: BRD4(2)/acetylated peptide H4 binding assay (TR-FRET); details: inhibition of interaction between His6-tagged BRD4(2) (amino acids 357-445) and acetylated histone H4 peptide
T1 construct: N-terminally His6-tagged BRD4(2) (amino acids 357-445); made in house; host or cells: E. coli
How it was run: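 Compounds (0.1 nM to 20 μM, 11 points, duplicates) preincubated 10 min at 22 °C with 100 nM His6-tagged BRD4(2) residues 357-445, then Ac-H4-biotin peptide added; incubated 1 h at 22 °C and 3 h-overnight at 4 °C. Eu/XL665 emission ratio normalised to DMSO and no-protein controls; 4-parameter IC50.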

[2] = system: MOLM-13 cell line; assay: MOLM-13 cell proliferation assay (alamarBlue); type: cell-based; details: Homo sapiens, inhibition of proliferation of MOLM-13 cells (acute myeloid leukaemia), 96 hours incubation
Procedure: In accordance with the invention, the substances were tested for their ability to inhibit the proliferation of the MOLM-13 cell linie (Deutsche Sammlung für Mikroorganismen und Zellkulturen [German Collection of Microorganisms and Cell Cultures], ACC 554; acute myeloid leukaemia). Cell viability was determined by means of the alamarBlue® reagent (Invitrogen) in a Victor X3 Multilabel Reader (Perkin Elmer). The excitation wavelength was 530 nm and the emission wavelength […].
The MOLM-13 cells were sown at a density of 4000 cells/well in 100 μl of growth medium on 96-well microtitre plates. After overnight incubation at 37° C., the fluorescence values were determined (CI values). The plates were then treated with various substance dilutions and incubated at 37° C. for 96 hours. Subsequently, the fluorescence values were determined (CO values). For the data analysis, the CI values were subtracted from the CO values and the results were compared between cells which had been treated with various dilutions of the substance or only with buffer solution. The IC50 values (substance concentration needed for 50% inhibition of cell proliferation) were calculated therefrom.

[3] = target: T2, BRD4 bromo domain 1 [BRD4(1)] (Homo sapiens, UniProt O60885); assay: BRD4(1)/acetylated peptide H4 binding assay (TR-FRET); details: inhibition of interaction between His6-tagged BRD4(1) (amino acids 67-152) and acetylated histone H4 peptide
T2 construct: N-terminally His6-tagged BRD4(1) (amino acids 67-152); made in house; host or cells: E. coli
How it was run: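 IC50 came from a 4-parameter fit of the 665/620 nm emission ratio, normalised to DMSO and no-protein controls. His6-tagged BRD4(1) residues 67-152 (typically 10 nM final) was preincubated 10 min with compound (0.1 nM to 20 μM, duplicates), then exposed to Ac-H4-biotin peptide at 22 °C for 1 h and 4 °C for at least 3 h.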

IC50 [1] [nM]	IC50 [2] [nM]	IC50 [3] [nM]	Structure (SMILES)
306	859	347	Cc1cc(C(=O)N[C@H]2CC[C@H](N3CCN(CC4CC4)CC3)CC2)ccc1Nc1ccc2c(n1)N(C1CCOCC1)[C@H](C)C(=O)N2C [Example 37, N-{trans-4-[4-(Cyclopropylmethyl)piperazin-1-yl]cyclohexyl}-4-{[(3R)-1,3-dimethyl-2-oxo-4-(tetrahydro-2H-pyran-4-yl)-1,2,3,4-tetrahydropyrido[2,3-b]pyrazin-6-yl]amino}-3-methylbenzamide]
79	51	194	COc1cc(C(=O)NC2CCC(=O)CC2)ccc1Nc1ccc2c(n1)N(C1CCOCC1)[C@H](C)C(=O)N2C [Example 38, 4-{[(3R)-1,3-Dimethyl-2-oxo-4-(tetrahydro-2H-pyran-4-yl)-1,2,3,4-tetrahydropyrido[2,3-b]pyrazin-6-yl]amino}-3-methoxy-N-(4-oxocyclohexyl)benzamide]
109	191	122	C[C@@H]1C(=O)N(C)c2ccc(Nc3ccc(C(=O)N4CC5(COC5)C4)cc3)nc2N1Cc1ccccc1 [Example 41, (3R)-4-Benzyl-1,3-dimethyl-6-{[4-(2-oxa-6-azaspiro[3.3]hept-6-ylcarbonyl)phenyl]amino}-3,4-dihydropyrido[2,3-b]pyrazin-2(1H)-one]
99	326	156	C[C@@H]1C(=O)N(C)c2ccc(Nc3ccc(C(=O)NC4CCC(O)CC4)cc3)nc2N1Cc1ccccc1 (stereo partly drawn) [Example 42, 4-{[(3R)-4-Benzyl-1,3-dimethyl-2-oxo-1,2,3,4-tetrahydropyrido[2,3-b]pyrazin-6-yl]amino}-N-(4-hydroxycyclohexyl)benzamide]
86	539	77	COc1cc(C(=O)N2CCN(C)CC2)ccc1Nc1ccc2c(n1)N(C1CCOCC1)[C@H](C)C(=O)N2C [Example 45, (3R)-6-({2-Methoxy-4-[(4-methylpiperazin-1-yl)carbonyl]phenyl}amino)-1,3-dimethyl-4-(tetrahydro-2H-pyran-4-yl)-3,4-dihydropyrido[2,3-b]pyrazin-2(1H)-one]
167	583	103	C[C@@H]1C(=O)N(C)c2ccc(Nc3ccc(C(=O)NCCN(C)C)cc3)nc2N1C1CCOCC1 [Example 48, N-[2-(Dimethylamino)ethyl]-4-{[(3R)-1,3-dimethyl-2-oxo-4-(tetrahydro-2H-pyran-4-yl)-1,2,3,4-tetrahydropyrido[2,3-b]pyrazin-6-yl]amino}benzamide]
111	576	145	C[C@@H]1C(=O)N(C)c2ccc(Nc3ccc(C(=O)NC4CN(C)C4)cc3)nc2N1C1CCOCC1 [Example 50, 4-{[(3R)-1,3-Dimethyl-2-oxo-4-(tetrahydro-2H-pyran-4-yl)-1,2,3,4-tetrahydropyrido[2,3-b]pyrazin-6-yl]amino}-N-(1-methylazetidin-3-yl)benzamide]
219	507	138	C[C@@H]1C(=O)N(C)c2ccc(Nc3ccc(C(=O)NCCN4CCN(C)CC4)cc3)nc2N1C1CCOCC1 [Example 51, 4-{[(3R)-1,3-Dimethyl-2-oxo-4-(tetrahydro-2H-pyran-4-yl)-1,2,3,4-tetrahydropyrido[2,3-b]pyrazin-6-yl]amino}-N-[2-(4-methylpiperazin-1-yl)ethyl]benzamide]
94	249	90	COc1cc(C(=O)N2CCC(N3CCCCC3)CC2)ccc1Nc1ccc2c(n1)N(C1CCOCC1)[C@H](C)C(=O)N2C [Example 53, (3R)-6-{[4-(1,4′-Bipiperidin-1′-ylcarbonyl)-2-methoxyphenyl]amino}-1,3-dimethyl-4-(tetrahydro-2H-pyran-4-yl)-3,4-dihydropyrido[2,3-b]pyrazin-2(1H)-one]
128	668	215	COc1cc(C(=O)NC2CN(C)C2)ccc1Nc1ccc2c(n1)N(C1CCOCC1)[C@H](C)C(=O)N2C [Example 55, 4-{[(3R)-1,3-Dimethyl-2-oxo-4-(tetrahydro-2H-pyran-4-yl)-1,2,3,4-tetrahydropyrido[2,3-b]pyrazin-6-yl]amino}-3-methoxy-N-(1-methylazetidin-3-yl)benzamide]
156	366	139	C[C@@H]1C(=O)N(C)c2ccc(Nc3ccc(C(=O)N[C@H]4CC[C@H](N5CCN(CC6CC6)CC5)CC4)cc3)nc2N1C1CCOCC1 [Example 57, N-{trans-4-[4-(Cyclopropylmethyl)piper-azin-1-yl]cyclohexyl}-4-{[(3R)-1,3-dimethyl-2-oxo-4-(tetrahydro-2H-pyran-4-yl)-1,2,3,4-tetrahydropyrido[2,3-b]pyrazin-6-yl]amino}benzamide]
134	339	111	C[C@@H]1C(=O)N(C)c2ccc(Nc3ccc(C(=O)NC4CCN(C)CC4)cc3)nc2N1C1CCOCC1 [Example 58, 4-{[(3R)-1,3-Dimethyl-2-oxo-4-(tetrahydro-2H-pyran-4-yl)-1,2,3,4-tetrahydropyrido[2,3-b]pyrazin-6-yl]amino}-N-(1-methylpiperidin-4-yl)benzamide]
110	407	172	COc1cc(C(=O)NCCc2cccnc2)ccc1Nc1ccc2c(n1)N(C1CCOCC1)[C@H](C)C(=O)N2C [Example 61, 4-{[(3R)-1,3-Dimethyl-2-oxo-4-(tetrahydro-2H-pyran-4-yl)-1,2,3,4-tetrahydropyrido[2,3-b]pyrazin-6-yl]amino}-3-methoxy-N-[2-(pyridin-3-yl)ethyl]benzamide]
146	444	187	COc1cc(C(=O)NC2CCC(N3CCC(F)(F)CC3)CC2)ccc1Nc1ccc2c(n1)N(C1CCOCC1)[C@H](C)C(=O)N2C (stereo partly drawn) [Example 62, N-[4-(4,4-Difluoropiperidin-1-yl)cyclohexyl]-4-{[(3R)-1,3-dimethyl-2-oxo-4-(tetrahydro-2H-pyran-4-yl)-1,2,3,4-tetrahydropyrido[2,3-b]pyrazin-6-yl]amino}-3-methoxybenzamide]
81	310	179	COc1cc(C(=O)NCCN2CCN(C)CC2)ccc1Nc1ccc2c(n1)N(C1CCOCC1)[C@H](C)C(=O)N2C [Example 64, 4-{[(3R)-1,3-Dimethyl-2-oxo-4-(tetrahydro-2H-pyran-4-yl)-1,2,3,4-tetrahydropyrido[2,3-b]pyrazin-6-yl]amino}-3-methoxy-N-[2-(4-methylpiperazin-1-yl)ethyl]benzamide]
154	270	140	C[C@@H]1C(=O)N(C)c2ccc(Nc3ccc(C(=O)NCCN4CCN(C)CC4)cc3)nc2N1C1CCCCC1 [Example 66, 4-{[(3R)-4-Cyclohexyl-1,3-dimethyl-2-oxo-1,2,3,4-tetrahydropyrido[2,3-b]pyrazin-6-yl]amino}-N-[2-(4-methylpiperazin-1-yl)ethyl]benzamide]
110	265	178	COc1cc(C(=O)NCCN2CCN(C)CC2)ccc1Nc1ccc2c(n1)N(C1CCCCC1)[C@H](C)C(=O)N2C [Example 67, 4-{[(3R)-4-Cyclohexyl-1,3-dimethyl-2-oxo-1,2,3,4-tetrahydropyrido[2,3-b]pyrazin-6-yl]amino}-3-methoxy-N-[2-(4-methylpiperazin-1-yl)ethyl]benzamide]
310	548	263	C[C@@H]1C(=O)N(C)c2ccc(Nc3ccc(C(=O)N[C@H]4CC[C@H](N5CCN(CC6CC6)CC5)CC4)cc3)nc2N1C1CCCCC1 [Example 68, 4-{[(3R)-4-Cyclohexyl-1,3-dimethyl-2-oxo-1,2,3,4-tetrahydropyrido[2,3-b]pyrazin-6-yl]amino}-N-{trans-4-[4-(cyclopropylmethyl)piperazin-1-yl]cyclohexyl}benzamide]
89	358	164	C[C@@H]1C(=O)N(C)c2ccc(Nc3ccc(C(=O)N4CC5(COC5)C4)cc3)nc2N1C1CCCCC1 [Example 69, (3R)-4-Cyclohexyl-1,3-dimethyl-6-{[4-(2-oxa-6-azaspiro[3.3]hept-6-ylcarbonyl)phenyl]amino}-3,4-dihydropyrido[2,3-b]pyrazin-2(1H)-one]
